Laboratory results: ChEMBL document CHEMBL1128710, “Synthesis of cluster galactosides with high affinity for the hepatic asialoglycoprotein receptor” (J Med Chem, 1995)

Experiment: Affinity towards Asialoglycoprotein receptor using in vitro competition assay for [125I]- ASOR binding to the parenchymal liver cells of rat

Going from COC(=O)CCCCC(=O)NCC(=O)NC(COCOCCCO[C@@H]1O[C@H](CO)[C@H](O)[C@H](O)[C@H]1O)(COCOCCCO[C@@H]1O[C@H](CO)[C@H](O)[C@H](O)[C@H]1O)COCOCCCO[C@@H]1O[C@H](CO)[C@H](O)[C@H](O)[C@H]1O to COC(=O)CCCCC(=O)NCC(=O)NC(COCOCCO[C@@H]1O[C@H](CO)[C@H](O)[C@H](O)[C@H]1O)(COCOCCO[C@@H]1O[C@H](CO)[C@H](O)[C@H](O)[C@H]1O)COCOCCO[C@@H]1O[C@H](CO)[C@H](O)[C@H](O)[C@H]1O, the Ki rises from 1.2 µM to 19 µM (16-fold). The first binds more tightly here.

First: CC(C)CCC[C@@H](C)[C@H]1CC[C@H]2[C@@H]3CC=C4C[C@@H](OC(=O)CCC(=O)NCC(=O)NC(CO[C@@H]5O[C@H](CO)[C@H](O)[C@H](O)[C@H]5O)(CO[C@@H]5O[C@H](CO)[C@H](O)[C@H](O)[C@H]5O)CO[C@@H]5O[C@H](CO)[C@H](O)[C@H](O)[C@H]5O)CC[C@]4(C)[C@H]3CC[C@]12C
Second: COC(=O)CCCCC(=O)NCC(=O)NC(CO[C@@H]1O[C@H](CO)[C@H](O)[C@H](O)[C@H]1O)(CO[C@@H]1O[C@H](CO)[C@H](O)[C@H](O)[C@H]1O)CO[C@@H]1O[C@H](CO)[C@H](O)[C@H](O)[C@H]1O
The Ki of the first is lower: 14 µM for the first, over 390 µM for the second.

First: COC(=O)CCCCC(=O)NCC(=O)NC(COCOCCOCCOCCOCCO[C@H]1O[C@@H](CO)[C@@H](O)[C@@H](O)[C@@H]1O)(COCOCCOCCOCCOCCO[C@H]1O[C@@H](CO)[C@@H](O)[C@@H](O)[C@@H]1O)COCOCCOCCOCCOCCO[C@H]1O[C@@H](CO)[C@@H](O)[C@@H](O)[C@@H]1O
Second: COC(=O)CCCCC(=O)NCC(=O)NC(COCOCCOCCO[C@@H]1O[C@H](CO)[C@H](O)[C@H](O)[C@H]1O)(COCOCCOCCO[C@@H]1O[C@H](CO)[C@H](O)[C@H](O)[C@H]1O)COCOCCOCCO[C@@H]1O[C@H](CO)[C@H](O)[C@H](O)[C@H]1O
The Ki of the first is 55-fold lower: 0.2 µM for the first, 11 µM for the second.

In the case of CC(=O)N[C@@H]1[C@@H](O)[C@@H](O)[C@@H](CO)O[C@H]1O, the Ki is reported as 870 µM.

Experiment: Affinity towards Asialoglycoprotein receptor using in vitro competition assay for [125I]- ASOR binding to the parenchymal liver cells of rabbit
Design: species or system Oryctolagus cuniculus

In the case of COC(=O)CCCCC(=O)NCC(=O)NC(CO[C@@H]1O[C@H](CO)[C@H](O)[C@H](O)[C@H]1O)(CO[C@@H]1O[C@H](CO)[C@H](O)[C@H](O)[C@H]1O)CO[C@@H]1O[C@H](CO)[C@H](O)[C@H](O)[C@H]1O, the Ki is reported as 150 µM.
